Experimental data published in US12180226B2, “Spirotricycle RIPK1 inhibitors and methods of uses thereof” (Merck Sharp & Dohme LLC, priority 2021, dated 2024).
pEC50: −log10 of the molar value. Structures can show the parent of a compound that is named as a salt.

Target: RIPK1 (recombinant GST-RIPK1 kinase domain, residues 1-327) (Homo sapiens (Human), UniProt Q13546)
Test: RIPK1-ADP-Glo Enzymatic Assay
Type: biochemical
Conditions: ADP-Glo; 25 nM GST-RIPK1, 300 μM ATP; assay lower limit ~25 nM; read-out: RIPK1 V0 Ec50
Summary of the method: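 Enzyme from baculovirus-infected Sf21 cells, 25 nM final, was pre-incubated 30 min at ambient temperature with compound (ten-point, 1:3 dilution from 100000 nM, 1% DMSO), then reacted 150 min with 300 μM ATP and 3 μM dephosphorylated MBP. ADP was read by luminescence; EC50 from four-parameter fit.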

Sequence of RIPK1 (recombinant GST-RIPK1 kinase domain, residues 1-327) (Q13546 1-327): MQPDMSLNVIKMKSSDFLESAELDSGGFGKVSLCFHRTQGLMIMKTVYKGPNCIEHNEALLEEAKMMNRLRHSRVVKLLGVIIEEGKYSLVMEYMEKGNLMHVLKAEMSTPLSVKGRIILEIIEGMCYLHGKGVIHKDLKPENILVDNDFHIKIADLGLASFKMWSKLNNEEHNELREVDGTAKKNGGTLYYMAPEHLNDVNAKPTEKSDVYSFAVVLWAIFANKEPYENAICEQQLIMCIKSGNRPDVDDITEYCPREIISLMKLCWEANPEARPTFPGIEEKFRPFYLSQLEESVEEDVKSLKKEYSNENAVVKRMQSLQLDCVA

With `O=C1N2[C@@H](CC[C@H]2c2ccccc2)OC12CCN(c1cc(-c3ccc(F)cc3)c([N+](=O)[O-])cn1)CC2` [Example 4.208, (5′S,7a′R)-1-[4-(4-fluorophenyl)-5-nitropyridin-2-yl]-5′-phenyltetrahydro-3′H-spiro[piperidine-4,2′-pyrrolo[2,1-b] [1,3]oxazol]-3′-one] the pEC50 was 7.25.
Work on `COc1ncnc(N2CCC3(CC2)O[C@@H]2CC[C@@H](c4ccccc4)N2C3=O)c1F` [Example 11.28, (5′S,7a′R)-1-(5-fluoro-6-methoxypyrimidin-4-yl)-5′-phenyltetrahydro-3′H-spiro[piperidine-4,2′-pyrrolo[2,1-b][1,3]oxazol]-3′-one] yielded a pEC50 of over 7.60.
`CCc1cc(C(=O)N2CCC3(CC2)O[C@@H]2CC[C@@H](c4cc(F)cc(F)c4)N2C3=O)no1` [Example 6.62, (5′S,7a′R)-5′-(3,5-difluorophenyl)-1-(5-ethyl-1,2-oxazole-3-carbonyl)tetrahydro-3′H-spiro[piperidine-4,2′-pyrrolo[2,1-b] [1,3]oxazol]-3′-one] showed a pEC50 of 7.19.
`CC1(C)Cc2cccc(C(=O)N3CCC4(CC3)O[C@@H]3CC[C@@H](c5cc(F)cc(F)c5)N3C4=O)c2O1` [Example 6.32, (5′S,7a′R)-5′-(3,5-difluorophenyl)-1-(2,2-dimethyl-2,3-dihydro-1-benzo-furan-7-carbonyl)-tetrahydro-3′H-spiro [piperidine-4,2′-pyrrolo[2,1-b][1,3]oxazol]-3′-one] was tested, and the pEC50 was 6.64.
For `CCc1cnc(N2CCC3(CC2)O[C@@H]2CC[C@@H](c4cc(F)cc(F)c4)N2C3=O)nc1` [Example 4.60, (5′S,7a′R)-5′-(3,5-difluorophenyl)-1-(5-ethylpyrimidin-2-yl)tetrahydro-3′H-spiro[piperidine-4,2′-pyrrolo[2,1-b] [1,3]oxazol]-3′-one], the pEC50 was 6.34.
Work on `O=C1N2[C@@H](CC[C@H]2c2ccccc2)OC12CN(c1ccnc3c(F)cnn13)C2` [Example 4.96, (5′S,7a′R)-1-(3-fluoropyrazolo[1,5-a]pyrimidin-7-yl)-5′-phenyltetrahydro-3′H-spiro[azetidine-3,2′-pyrrolo[2,1-b]oxazol]-3′-one, TFA salt] yielded a pEC50 of over 7.60.
For `Cc1cc(C(=O)N2CCC3(CC2)O[C@@H]2CC[C@@H](c4cc(F)cc(F)c4)N2C3=O)ccc1C#N` [Example 5.18, 4-((5′S,7a′R)-5′-(3,5-difluorophenyl)-3′-oxo-tetrahydro-3′H-spiro [piperidine-4,2′-pyrrolo-[2,1-b]oxazole]-1-carbon-yl)-2-methylbenzonitrile], the pEC50 was 6.86.
Compound `O=C(c1ccccc1)N1CC2(C1)S[C@@H]1CC[C@@H](c3cc(F)cc(F)c3)N1C2=O` [Example 1.25, (5′S,7a′R)-1-benzoyl-5′-(3,5-difluorophenyl)tetrahydro-3′H-spiro[azetidine-3,2′-pyrrolo[2,1-b]thiazol]-3′-one] has a pEC50 of 7.01.
Compound `Cc1cn(-c2cc(N3CCC4(CC3)O[C@@H]3CC[C@@H](c5ccccc5)N3C4=O)ncn2)cn1` [Example 4.172, (5′S,7a′R)-1-[6-(4-methyl-1H-imidazol-1-yl)pyrimidin-4-yl]-5′-phenyltetrahydro-3′H-spiro[piperidine-4,2′-pyrrolo[2,1-b] [1,3]oxazol]-3′-one] has a pEC50 of 7.60.
Work on `O=C1N2[C@@H](CC[C@H]2c2ccccc2)OC12CCN(c1ncnc3ccnn13)CC2F` (single isomer, unassigned) [Example 4.98, (3[S or R],4[R or S], 5′S,7a′R)-3-fluoro-5′-phenyl-1-(pyrazolo [1,5-a][1,3,5]triazin-4-yl)tetrahydro-3′H-spiro[piperidine-4,2′-pyrrolo[2,1-b]oxazol]-3′-one] yielded a pEC50 of 7.44.
For `O=C1N2[C@@H](CC[C@H]2C2CCCC2)OC12CCN(c1ccnc3c(F)cnn13)CC2` [Example 4.88, (5′S,7a′R)-5′-cyclopentyl-1-(3-fluoropyrazolo [1,5-a]pyrimidin-7-yl)tetrahydro-3′H-spiro[piperidine-4,2′-pyrrolo[2,1-b]oxazol]-3′-one, TFA salt], the pEC50 was over 7.60.
With `Cc1ccc([C@@H]2CC[C@H]3OC4(CCN(C(=O)c5ccccc5)CC4)C(=O)N32)cc1` [Example 17.3, (5′S,7a′R)-1-benzoyl-5′-(p-tolyl)tetrahydro-3′H-spiro[piperidine-4,2′-pyrrolo[2,1-b]oxazol]-3′-one] the pEC50 was over 7.60.
For `O=C(c1cnc2snnc2c1)N1CCC2(CC1)O[C@@H]1CC[C@@H](c3cc(F)cc(F)c3)N1C2=O` [Example 6.46, (5′S,7a′R)-5′-(3,5-difluorophenyl)-1-([1,2,3]thiadiazolo-[5,4-b]pyridine-6-carbonyl)tetrahydro-3′H-spiro[piperidine-4,2′-pyrrolo[2,1-b] [1,3]oxazol]-3′-one], the pEC50 was 6.68.
`CC(C)(O)C#Cc1cccc(C(=O)N2CCC3(CC2)O[C@@H]2CC[C@@H](c4cc(F)cc(F)c4)N2C3=O)c1` [Example 5.24, (5′S,7a′R)-5′-(3,5-difluoro-phenyl)-1-(3-(3-hydroxy-3-methylbut-1-yn-1-yl)-benzoyl)tetrahydro-3′H-spiro[piperidine-4,2′-pyrrolo[2,1-b]oxazol]-3′-one] was tested, and the pEC50 was over 7.60.
In the case of `O=C(c1ccc(Cl)cc1F)N1CCC2(CC1)O[C@@H]1CC[C@@H](c3cc(F)cc(F)c3)N1C2=O` [Example 5.59, (5′S,7a′R)-1-(4-chloro-2-fluorobenzoyl)-5′-(3,5-difluorophenyl)tetrahydro-3′H-spiro[piperidine-4,2′-pyrrolo[2,1-b]oxazol]-3′-one], the pEC50 was over 7.60.
Work on `O=C(c1sccc1Cl)N1CCC2(CC1)O[C@@H]1CC[C@@H](c3cc(F)cc(F)c3)N1C2=O` [Example 5.31, (5′S,7a′R)-1-(3-chloro-thiophene-2-carbonyl)-5′-(3,5-difluorophenyl)tetra-hydro-3′H-spiro[piperi-dine-4,2′-pyrrolo[2,1-b]oxazol]-3′-one] yielded a pEC50 of over 7.60.
`NC(=O)c1ccc(N2CCC3(CC2)O[C@@H]2CC[C@@H](c4ccccc4)N2C3=O)nc1` [Example 4.199, 6-[(5′S,7a′R)-3′-oxo-5′-phenyltetrahydro-1H,3′H-spiro[piperidine-4,2′-pyrrolo[2,1-b] [1,3]oxazol]-1-yl]pyridine-3-carboxamide] showed a pEC50 of 7.44.
In the case of `N#Cc1cc(F)cc(C(=O)N2CCC3(CC2)O[C@@H]2CC[C@@H](c4cc(F)cc(F)c4)N2C3=O)c1` [Example 5.15, 3-((5′S,7a′R)-5′-(3,5-difluorophenyl)-3′-oxo-tetrahydro-3′H-spiro [piperidine-4,2′-pyrrolo-[2,1-b]oxazole]-1-carbon-yl)-5-fluorobenzonitrile], the pEC50 was 7.01.
For `O=C(c1cnc2cnccn12)N1CCC2(CC1)O[C@@H]1CC[C@@H](c3cc(F)cc(F)c3)N1C2=O` [Example 5.67, (5′S,7a′R)-5′-(3,5-difluoro-phenyl)-1-(imidazo[1,2-a]pyrazine-3-carbonyl)-tetrahydro-3′H-spiro [piperidine-4,2′-pyrrolo-[2,1-b]oxazol]-3′-one], the pEC50 was 6.87.
Compound `CC(C)Oc1cc(N2CCC3(CC2)O[C@@H]2CC[C@@H](c4cc(F)cc(F)c4)N2C3=O)ncc1C#N` [Example 4.41, 6-[(5′S,7a′R)-5′-(3,5-difluorophenyl)-3′-oxotetrahydro-1H,3′H-spiro[piperidine-4,2′-pyrrolo[2,1-b] [1,3]oxazol]-1-yl]-4-[(propan-2-yl)oxy]pyridine-3-carbonitrile] has a pEC50 of over 7.60.
Compound `CSc1cc(N2CCC3(CC2)O[C@@H]2CC[C@@H](c4cc(F)cc(F)c4)N2C3=O)ncc1C#N` [Example 4.71, 6-[(5′S,7a′R)-5′-(3,5-difluorophenyl)-3′-oxotetrahydro-1H,3′H-spiro[piperidine-4,2′-pyrrolo[2,1-b] [1,3]oxazol]-1-yl]-4-(methylsulfanyl)pyridine-3-carbonitrile] has a pEC50 of 7.52.
Work on `Cc1nc(C(=O)N2CCC3(CC2)O[C@@H]2CC[C@@H](c4cccc(F)c4)N2C3=O)c(C)o1` [Example 6.126, (5′S,7a′R)-1-(2,5-dimethyl-1,3-oxazole-4-carbonyl)-5′-(3-fluorophenyl)tetra-hydro-3′H-spiro[piperi-dine-4,2′-pyrrolo[2,1-b][1,3]oxazol]-3′-one] yielded a pEC50 of 6.21.
Compound `N#Cc1cncc([C@@H]2CC[C@H]3OC4(CCN(c5ccnc6c(F)cnn56)CC4)C(=O)N32)c1` [Example 4.127, 5-[(5′S,7a′R)-1-(3-fluoropyrazolo[1,5-a]pyrimidin-7-yl)-3′-oxotetrahydro-3′H-spiro[piperidine-4,2′-pyrrolo[2,1-b] [1,3]oxazol]-5′-yl]pyridine-3-carbonitrile] has a pEC50 of over 7.60.
In the case of `O=C1N2C(CCC2c2cc(F)cc(F)c2)SC12CCN(c1ccnc3c(F)cnn13)CC2` (stereo not shown) [Example 4.110, 5′-(3,5-difluorophenyl)-1-(3-fluoropyrazolo[1,5-a]pyrimidin-7-yl)tetrahydro-3′H-spiro[piperidine-4,2′-pyrrolo[2,1-b]thiazol]-3′-one], the pEC50 was over 7.60.
`Cc1ccc(F)c(C(=O)N2CCC3(CC2)O[C@@H]2CC[C@@H](c4ccccc4F)N2C3=O)c1` [Example 1.17, (5′S,7a′R)-1-(2-fluoro-5-methylbenzoyl)-5′-(2-fluorophenyl)tetrahydro-3′H-spiro[piperidine-4,2′-pyrrolo[2,1-b]oxazol]-3′-one] gave a pEC50 of over 7.60.
`O=C1N2[C@@H](CC[C@H]2c2cc(F)cc(F)c2)OC12CCN(c1ccc(Br)c3ncnn13)CC2` [Example 13.7, (5′S,7a′R)-1-(8-bromo-[1,2,4]triazolo[1,5-a]pyridin-5-yl)-5′-(3,5-difluorophenyl)tetrahydro-3′H-spiro[piperidine-4,2′-pyrrolo[2,1-b]oxazol]-3′-one] showed a pEC50 of over 7.60.
In the case of `Cc1cccc(C(=O)N2CCC3(CC2)O[C@@H]2CC[C@@H](c4ccccc4)N2C3=O)c1F` [Example 6.157, (5′S,7a′R)-1-(2-fluoro-3-methylbenzene-1-carbonyl)-5′-phenyl-tetrahydro-3′H-spiro [piperidine-4,2′-pyrrolo[2,1-b][1,3]-oxazol]-3′-one], the pEC50 was over 7.60.
`O=C(c1ccc(-n2nccn2)cc1)N1CCC2(CC1)O[C@@H]1CC[C@@H](c3cc(F)cc(F)c3)N1C2=O` [Example 6.21] gave a pEC50 of 6.06.
